Like-named read-outs stand apart in the source and are kept apart here. Residues, ends and D or L forms follow the SMILES beside them. *: point of attachment. Cbz = O=C(OCc1ccccc1)*; CH2F = FC*
Experiments:
[1] = tested on: PARP in SU-DHL-1 cells; assay type: cell-based
[2] = tested on: SU-DHL-1 cells; assay type: cell-based
[3] = tested on: alkylguanyl transferase (AGT) in SU-DHL-1 cells
[4] = tested on: SU-DHL-1 cells; assay: Cell cycle analysis (propidium iodide, FACS); details: SU-DHL-1, eight hours, equitoxic concentrations (bendamustine 50 μM)
[5] = tested on: SU-DHL-1 cells; assay type: cell-based; remark: listed apart in the source
[6] = tested on: SU-DHL-1 cells; assay type: cell-based; remark: listed apart in the source
[7] = tested on: SU-DHL-1 cells; assay: cells; assay type: cell-based; details: Homo sapiens
[8] = tested on: MCF-7/ADR cells and p53 deficient RK0-E6 colon adenocarcinoma cells; assay type: cell-based
[9] = tested on: Ape-1 base excision repair enzyme; assay type: cell-based
[10] = tested on: gamma-H2AX histone; assay: H2AX foci formation (immunofluorescence); details: 50 μM
Protocol: Cell were grown on Lab-Tek chamber slides (Nalge Nunc Intl., Naperville, Ill.) in RPMI 1640 media supplemented with 10% FBS. […] The cells were incubated for 30 minutes at 37° C. and then washed two times with PBS. They were incubated for an additional 4 hours at 37° C. The cells were then washed twice with 1×PBS and incubated 10 minutes in −20° C. 100% methanol to fix the cells. They were then washed three times for five minutes each with 1×PBS. They were incubated at room temperature for 1 hour in blocking buffer (10% FBS in 1×PBS, 1% BSA). The slides were incubated at 4° C. with rocking overnight with the primary polyclonal anti-H2AX antibody (R & D Systems, Minneapolis, Minn.). The antibody was diluted in blocking buffer at a ratio of 1:10,000. Slides were washed three times with 1×PBS and incubated with Alexa Flour 488 goat anti-rabbit secondary antibody (1:4000) (Molecular Probes, Eugene, Oreg.) for 45 minutes at room temperature with gentle shaking. Slides were washed three times with 1×PBS and then the chambers removed and SlowFade Light Antifade with DAPI (Molecular Probes) was added to the cells and coverslips sealed on the slides. Analysis was performed using a motorized Zeiss AxioPlan 2e imaging microscope with DIC optics and fluorescence, a Zeiss AxioCam HRm camera and Zeiss Axiovision software Version 4.2.

[11] = tested on: relapsed indolent or transformed rituximab-refractory B-cell NHL; assay: Phase II multicenter trial; assay type: in vivo, human
Text: This study evaluated the efficacy and toxicity of bendamustine in patients with NHL who have relapsed or are refractory to previous chemotherapy regimens. Patients refractory to rituximab had disease progression within 6 months of treatment.
Methods: This Phase II multicenter trial enrolled patients with relapsed indolent or transformed rituximab-refractory B-cell NHL from 17 sites in the US and Canada. […] Median age of patients was 63 years (range: 38-84) and 88% had Stage III/IV disease. Patients received bendamustine 120 mg/m^2 IV over 30-60 minutes, days 1 and 2, every 21 days for up to 6 cycles. Response was measured using the International Working Group criteria.

[12] = tested on: 60 human tumor cell lines
[13] = SU-DHL-1, 72 h, read-out: Ave IC50
[14] = SU-DHL-1, 72 h, read-out: Ave IC90

N[C@@H](Cc1ccc(N(CCCl)CCCl)cc1)C(=O)O [melphalan]
PARP cleavage [1]: No PARP cleavage
loss of viability after brief exposure and wash-out [2]: minimal loss of viability

O=P1(N(CCCl)CCCl)NCCCO1 (centres unmarked) [cyclophosphamide]
effect of O6-benzylguanine on cytotoxic potency [3]: Opposite results
S-phase distribution increase [4]: ~15%

O=C(O)CCCc1ccc(N(CCCl)CCCl)cc1 [Chlorambucil, chlorambucil]
PARP cleavage [1]: No PARP cleavage
loss of viability after brief exposure and wash-out [2]: minimal loss of viability
PLK-1 and Aurora A kinase (AurkA) expression [5]: No changes
down-regulation of mRNA expression of PLK-1, Aurora Kinases A and B, cyclin B1 [5]: minor effect
induction of p21 and NOXA mRNA [5]: much lower extent
up-regulation of Exo1 expression [5]: 1.8 fold
S-phase distribution increase [4]: approximately 20%
PARP protein expression [6]: no changes
expression of total p53 [6]: small increase
up-regulation of Ser-15-phosphorylated p53 [6]: no changes
IC50 [7, 13]: 3.4 µM
IC90 [7, 14]: 6.2 µM
IC90 ([7]; SU-DHL-1, read-out: IC90 concentration): 5 µM
IC50 ([7]; SU-DHL-1, read-out: equitoxic (IC50) concentrations): 4 µM

COC(=O)C[C@H](NC(=O)[C@H](C)NC(=O)[C@@H](NC(=O)OCc1ccccc1)C(C)C)C(=O)CF [zVAD-fmk] (Cbz-Val-Ala-Asp(OMe)-CH2F)
bendamustine-induced increases in Annexin-V-positive cells [8]: able to inhibit

O=NN(CCCl)C(=O)NCCCl [carmustine]
effect of O6-benzylguanine on cytotoxic potency [3]: significantly sensitizes

Cl.Cn1c(CCCC(=O)O)nc2cc(N(CCCl)CCCl)ccc21 [Bendamustine, 4-{5-[bis(2-chloroethyl)amino]-1-methyl-2-benzimidazolyl} butyric acid hydrochloride]
PARP cleavage [1]: Maximal PARP cleavage
micronucleation (nuclear morphology, DAPI) ([8]; 50 μM, alone or with 20 μM zVAD-fmk, two or three days): increased incidence of micronucleation
effect of O6-benzylguanine on cytotoxic potency [3]: not enhanced
loss of viability after brief exposure and wash-out [2]: extensive loss of viability
change of IC50 with methoxyamine addition [9]: reduced approximately four-fold
time to detectable intranuclear H2AX foci [10]: ≤ 30 min
Fen1 mRNA regulation [5]: upregulated
PLK-1 and Aurora A kinase (AurkA) expression [5]: down-regulated
down-regulation of mRNA expression of PLK-1, Aurora Kinases A and B, cyclin B1 [5]: 60 to 80%
induction of p21 and NOXA mRNA [5]: induced
up-regulation of Exo1 expression [5]: 2.5 fold
objective response ([11]; 15 patients refractory to prior alkylator treatment): 67%
complete response ([11]; ITT population): 25%
disease progression ([11]; ITT population): 14%
partial response ([11]; ITT population): 49%
stable disease ([11]; ITT population): 12%
overall objective response rate (ORR) ([11]; ITT population, 120 mg/m^2 IV days 1 and 2 every 21 days): 74%
median duration of response ([11]; all patients): 6.6 months
median duration of response ([11]; indolent patients): 9.3 months
toxicity ([11]; single agent, heavily pretreated patients): acceptable toxicity
median duration of response ([11]; transformed patients): 2.4 months
S-phase distribution increase [4]: over 40%
PARP protein expression [6]: dramatic reduction
expression of total p53 [6]: strong increase
protein expression of Bax [6]: increase
up-regulation of Ser-15-phosphorylated p53 [6]: 8 fold
IC50 [7, 13]: 33.2 µM
IC90 [7, 14]: 56.3 µM
IC50 ([7]; SU-DHL-1, read-out: IC50 concentration): 25 µM

CN(C)/N=N/c1[nH]cnc1C(N)=O [DTIC, Dacarbazine, Dacarbazine]
Correlation (PCC) with bendamustine, LC50 [12]: 0.792 (LC50)
